Experimental data as given in ChEMBL document CHEMBL5608201, “Discovery and optimization of thiazole-based quorum sensing inhibitors as potent blockers of Pseudomonas aeruginosa pathogenicity” (Eur J Med Chem, 2024).
pIC50: −log10 of the molar value. In brackets after ≈: the same amount, converted by molar mass.

Tests used:
Pseudomonas aeruginosa = assay: Antivirulence activity against Pseudomonas aeruginosa PA14 assessed as inhibition of pyocyanin biosynthesis incubated for 16 hrs under agitation by photometric analysis; type: functional, organism-based; details: PA14, 16 h
CYP1A = target: T1, CYP1A (Homo sapiens, UniProt P04798+P05177); assay: Inhibition of CYP1A (unknown origin); type: ADME, protein assay
T1 sequence (P04798 whole entry): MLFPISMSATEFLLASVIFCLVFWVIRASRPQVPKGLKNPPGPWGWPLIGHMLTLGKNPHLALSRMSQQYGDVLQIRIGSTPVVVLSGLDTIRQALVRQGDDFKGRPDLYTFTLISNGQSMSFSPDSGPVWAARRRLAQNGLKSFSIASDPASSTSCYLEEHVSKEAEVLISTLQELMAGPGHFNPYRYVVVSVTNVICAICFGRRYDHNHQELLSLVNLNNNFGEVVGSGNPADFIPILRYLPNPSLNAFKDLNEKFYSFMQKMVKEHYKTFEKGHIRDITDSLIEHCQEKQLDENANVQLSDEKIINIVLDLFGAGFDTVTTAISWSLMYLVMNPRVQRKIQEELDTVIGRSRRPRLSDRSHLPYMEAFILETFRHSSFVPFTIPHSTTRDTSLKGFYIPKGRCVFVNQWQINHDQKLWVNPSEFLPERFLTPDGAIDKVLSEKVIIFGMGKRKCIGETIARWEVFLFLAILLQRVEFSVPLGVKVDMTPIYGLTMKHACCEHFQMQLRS
T1 sequence (P05177 whole entry): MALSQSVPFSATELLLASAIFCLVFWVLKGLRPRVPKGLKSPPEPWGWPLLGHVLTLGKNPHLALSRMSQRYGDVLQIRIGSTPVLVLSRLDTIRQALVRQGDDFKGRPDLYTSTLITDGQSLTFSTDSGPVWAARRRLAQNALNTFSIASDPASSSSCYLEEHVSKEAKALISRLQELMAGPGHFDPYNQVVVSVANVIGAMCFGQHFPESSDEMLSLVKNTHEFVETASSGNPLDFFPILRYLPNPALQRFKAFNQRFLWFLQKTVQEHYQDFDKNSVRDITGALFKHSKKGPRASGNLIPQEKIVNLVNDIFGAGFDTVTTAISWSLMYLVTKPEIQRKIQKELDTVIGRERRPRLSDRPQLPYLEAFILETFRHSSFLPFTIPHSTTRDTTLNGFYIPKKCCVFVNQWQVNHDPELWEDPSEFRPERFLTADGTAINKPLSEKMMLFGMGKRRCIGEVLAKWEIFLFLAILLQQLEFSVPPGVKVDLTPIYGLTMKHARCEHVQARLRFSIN

[1] = Cytotoxicity against human HepG2 cells assessed as viable cells; type: toxicity, cell-based; details: read-out: LD50 (the source's name)
[2] = Metabolic stability in mouse liver microsomes assessed as half life at 1 uM measured after 30 mins by HPLC-MS/MS analysis; type: ADME, Microsome
[3] = Cytotoxicity against human HEK293 cells assessed as viable cells; type: toxicity, cell-based; details: read-out: LD50 (the source's name)
[4] = Lipophilicity, log D of the compound; type: physicochemical; details: octanol/water
[5] = Kinetic aqueous solubility of the compound in PBS buffer incubated for 5 mins by turbidimetric aqueous solubility assay; type: physicochemical; details: read-out: Kinetic_solubility
[6] = target: Voltage-gated inwardly rectifying potassium channel KCNH2 (Homo sapiens, UniProt Q12809); assay: Inhibition of hERG; type: toxicity
[7] = Plasma protein binding in human; type: ADME, cell-free; details: read-out: PPB
[8] = Plasma protein binding in mouse; type: ADME, cell-free; details: read-out: PPB
[9] = Metabolic stability in human liver S9 fraction assessed as half life; type: ADME, subcellular
[10] = Cytotoxicity against human HepG2 cells assessed as viable cells at 25 uM relative to control; type: toxicity, cell-based; details: read-out: Activity
[11] = Cytotoxicity against human HEK293 cells assessed as viable cells at 25 uM relative to control; type: toxicity, cell-based; details: read-out: Activity
Cytochrome P450 2D6 = Cytochrome P450 2D6 (Homo sapiens, UniProt P10635); assay: Inhibition of CYP2D6 (unknown origin); type: ADME
Cytochrome P450 2C9 = Cytochrome P450 2C9 (Homo sapiens, UniProt P11712); assay: Inhibition of CYP2C9 (unknown origin); type: ADME
[12] = target: T2, Transcriptional regulator MvfR (Pseudomonas aeruginosa PA14, UniProt A0A072ZLE6); assay: Inverse agonist activity at Pseudomonas aeruginosa PqsR extracted from Escherichia coli Dh5alpha co-expressing lacZ incubated with test compound in presence of pseudomonas quinolone signal (PQS) by ONPG/heterologous reporter gene assay
T2 sequence (A0A072ZLE6 whole entry): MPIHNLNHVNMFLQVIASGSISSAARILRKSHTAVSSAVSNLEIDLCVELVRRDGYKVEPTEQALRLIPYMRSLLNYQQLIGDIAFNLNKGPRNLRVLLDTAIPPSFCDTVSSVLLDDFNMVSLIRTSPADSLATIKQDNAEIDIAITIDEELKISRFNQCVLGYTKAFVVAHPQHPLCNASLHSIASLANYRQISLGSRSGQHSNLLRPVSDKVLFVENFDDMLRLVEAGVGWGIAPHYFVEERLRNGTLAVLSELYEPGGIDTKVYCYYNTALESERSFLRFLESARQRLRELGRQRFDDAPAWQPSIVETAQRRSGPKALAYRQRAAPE

Chain of Cytochrome P450 2C9 (P11712 whole entry): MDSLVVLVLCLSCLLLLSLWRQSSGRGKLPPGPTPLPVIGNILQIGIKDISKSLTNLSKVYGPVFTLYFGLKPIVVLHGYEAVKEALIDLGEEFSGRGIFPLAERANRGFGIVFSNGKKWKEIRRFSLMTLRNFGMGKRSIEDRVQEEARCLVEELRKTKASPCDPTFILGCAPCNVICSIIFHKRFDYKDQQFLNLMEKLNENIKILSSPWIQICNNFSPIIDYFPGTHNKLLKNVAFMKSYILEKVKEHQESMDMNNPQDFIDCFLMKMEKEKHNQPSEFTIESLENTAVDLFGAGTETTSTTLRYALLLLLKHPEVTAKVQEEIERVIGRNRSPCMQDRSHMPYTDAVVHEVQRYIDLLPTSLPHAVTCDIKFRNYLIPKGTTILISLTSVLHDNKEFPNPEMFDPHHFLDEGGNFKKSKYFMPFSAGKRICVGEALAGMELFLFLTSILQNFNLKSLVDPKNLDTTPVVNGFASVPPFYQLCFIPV
Chain of Voltage-gated inwardly rectifying potassium channel KCNH2 (Q12809 whole entry): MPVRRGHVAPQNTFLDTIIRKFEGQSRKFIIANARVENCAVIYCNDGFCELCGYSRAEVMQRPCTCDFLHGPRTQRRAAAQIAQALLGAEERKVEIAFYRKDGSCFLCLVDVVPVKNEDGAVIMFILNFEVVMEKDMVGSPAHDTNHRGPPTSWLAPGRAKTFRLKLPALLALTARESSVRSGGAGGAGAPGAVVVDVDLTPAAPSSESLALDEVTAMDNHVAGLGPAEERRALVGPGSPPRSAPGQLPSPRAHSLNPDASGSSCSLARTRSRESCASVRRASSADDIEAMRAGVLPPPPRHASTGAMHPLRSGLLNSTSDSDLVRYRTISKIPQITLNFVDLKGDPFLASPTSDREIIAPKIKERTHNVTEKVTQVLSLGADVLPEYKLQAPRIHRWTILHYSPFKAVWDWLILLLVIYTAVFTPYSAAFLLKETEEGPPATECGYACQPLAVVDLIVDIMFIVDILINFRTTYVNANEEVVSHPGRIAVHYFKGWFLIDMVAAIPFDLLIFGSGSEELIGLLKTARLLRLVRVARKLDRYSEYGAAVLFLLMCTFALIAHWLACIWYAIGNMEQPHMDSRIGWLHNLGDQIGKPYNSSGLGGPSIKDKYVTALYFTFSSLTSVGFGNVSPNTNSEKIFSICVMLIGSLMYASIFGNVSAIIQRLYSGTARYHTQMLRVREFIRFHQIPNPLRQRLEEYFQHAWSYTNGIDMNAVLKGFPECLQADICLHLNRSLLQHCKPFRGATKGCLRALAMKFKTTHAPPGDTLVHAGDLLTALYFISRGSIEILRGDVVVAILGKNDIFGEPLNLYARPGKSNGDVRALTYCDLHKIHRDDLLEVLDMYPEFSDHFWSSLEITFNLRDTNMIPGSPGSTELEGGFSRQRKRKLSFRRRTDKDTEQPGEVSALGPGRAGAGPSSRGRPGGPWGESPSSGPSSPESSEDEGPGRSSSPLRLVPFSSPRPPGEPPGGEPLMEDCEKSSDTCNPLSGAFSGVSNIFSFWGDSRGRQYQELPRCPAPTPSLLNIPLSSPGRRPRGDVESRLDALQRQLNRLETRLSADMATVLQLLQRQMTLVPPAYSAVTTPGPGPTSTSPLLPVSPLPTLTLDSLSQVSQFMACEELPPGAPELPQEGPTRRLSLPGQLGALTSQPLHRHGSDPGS
Chain of Cytochrome P450 2D6 (P10635 whole entry): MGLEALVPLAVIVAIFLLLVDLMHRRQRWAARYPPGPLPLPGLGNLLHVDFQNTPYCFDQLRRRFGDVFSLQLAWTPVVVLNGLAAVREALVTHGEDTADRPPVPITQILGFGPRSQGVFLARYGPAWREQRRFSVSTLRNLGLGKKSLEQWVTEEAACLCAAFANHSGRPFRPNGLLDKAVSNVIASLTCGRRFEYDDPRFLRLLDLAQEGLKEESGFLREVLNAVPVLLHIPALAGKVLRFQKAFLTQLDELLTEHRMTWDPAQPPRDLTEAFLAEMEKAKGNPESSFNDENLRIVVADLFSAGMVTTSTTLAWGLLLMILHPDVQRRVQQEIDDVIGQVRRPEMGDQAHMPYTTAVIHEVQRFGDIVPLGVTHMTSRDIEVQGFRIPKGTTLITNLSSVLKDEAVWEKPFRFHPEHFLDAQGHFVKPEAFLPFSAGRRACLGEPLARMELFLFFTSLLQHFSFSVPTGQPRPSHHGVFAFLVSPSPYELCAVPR

Row | SMILES | pIC50 (Pseudomonas aeruginosa) | half-life at 1 µM [2] [min] | logD [4] | solubility kinetic at 5 min [5] [µM] | pIC50 [12] | other results
1 | FC(F)(F)c1cc(NCc2cn(-c3ccc(Oc4ccccc4)cc3)nn2)ccn1 | 6.70 | 10 | 4.22 | 8 (≈ 3.29 µg/mL) | – | pIC50 (CYP1A): < 4.60; CC50 [1]: ~25 µM; CC50 [3]: ~25 µM; pIC50 [6]: < 4.60; fraction unbound [7]: < 0.01; fraction unbound [8]: < 0.01; half-life [9]: > 60 min; viability at 25 µM [10]: 55%; viability at 25 µM [11]: 48%; pIC50 (Cytochrome P450 2D6): < 4.60; pIC50 (Cytochrome P450 2C9): < 4.60
2 | CN(C)c1ccc(-c2ncc(CNc3ccnc(C(F)(F)F)c3)s2)cc1 | < 5.30 | 45 | – | 13 (≈ 4.92 µg/mL) | 6.14 | –
3 | FC(F)(F)c1cc(NCc2cc(-c3ccc(Oc4ccccc4)cc3)n[nH]2)ccn1 | 6.28 | 23 | 4.35 | 15 (≈ 6.16 µg/mL) | 6.93 | –
4 | FC(F)(F)c1cc(NCc2ncsc2-c2ccc(Oc3ccccc3)cc2)ccn1 | < 8.30 | – | – | – | < 8.30 | –
5 | FC(F)(F)c1cc(NCc2cnc(-c3ccc(Cl)cc3)s2)ccn1 | 6.23 | 122 | 4.28 | 36 (≈ 13.3 µg/mL) | 7.17 | –
6 | FC(F)(F)c1cc(NCc2cnc(-c3ccc(Cl)s3)s2)ccn1 | < 5.30 | 2 | – | 43 (≈ 16.2 µg/mL) | 7.07 | –
7 | CC(C)Oc1ccc(-c2ncc(CNc3ccnc(C(F)(F)F)c3)s2)cc1 | 6.93 | 29 | 4.01 | 18 (≈ 7.08 µg/mL) | 7.74 | –
8 | FC(F)(F)c1cc(NCc2nc(-c3ccc(Oc4ccccc4)cc3)cs2)ccn1 | < 5.30 | 13 | – | 45 (≈ 19.2 µg/mL) | 6.15 | –
9 | CC(C)Oc1ccc(-c2ncc(CNc3cc(C#N)nc(C(F)(F)F)c3)s2)cc1 | 6.65 | 32 | 5.12 | 6 (≈ 2.51 µg/mL) | 7.08 | –
10 | FC(F)(F)c1cc(NCc2cnc(-c3ccc(C4CC4)cc3)s2)ccn1 | 6.75 | 14 | 4.19 | 7 (≈ 2.63 µg/mL) | 7.55 | –
11 | FC(F)(F)c1cc(NCc2cnc(-c3ccc(Cl)nc3)s2)ccn1 | < 8.30 | 49 | – | 200 (≈ 74.2 µg/mL) | 6.66 | –
12 | CC(C)Oc1ccc(-c2ncc(CNc3ccnc(Cl)c3)s2)cc1 | 6.52 | 22 | 5.09 | 22 (≈ 7.92 µg/mL) | 7.35 | –
13 | FC(F)(F)c1cc(NCc2cnc(-c3ccc(Oc4ccccc4)cc3)s2)ccn1 | 6.56 | 24 | 3.29 | 6 (≈ 2.56 µg/mL) | 7.77 | –
14 | FC(F)(F)c1cc(OCc2cnc(-c3ccc(Oc4ccccc4)cc3)s2)ccn1 | < 5.30 | – | 3.87 | – | – | –
15 | FC(F)(F)c1cc(NCc2nnc(-c3ccc(Oc4ccccc4)cc3)[nH]2)ccn1 | 6.16 | 23 | 3.96 | 48 (≈ 19.7 µg/mL) | 7.03 | –
16 | COc1ccc(-c2ncc(CNc3ccnc(C(F)(F)F)c3)s2)cc1C | 6.24 | 1 | 4.02 | 45 (≈ 17.1 µg/mL) | 7.24 | –
17 | FC(F)(F)c1cc(NCc2ccc(-c3ccc(Oc4ccccc4)cc3)o2)ccn1 | < 5.30 | – | – | 63 (≈ 25.9 µg/mL) | – | –
18 | FC(F)(F)c1cc(NCc2csc(-c3ccc(Oc4ccccc4)cc3)n2)ccn1 | 5.86 | 18 | 5.04 | 18 (≈ 7.69 µg/mL) | 7.28 | –

Row | SMILES | pIC50 (Pseudomonas aeruginosa) | half-life at 1 µM [2] [min] | logD [4] | solubility kinetic at 5 min [5] [µM] | pIC50 [12] | other results
19 | CC(C)Oc1ccc(-c2ncc(CNc3cc(C#N)nc(C(F)(F)F)c3)s2)cc1Cl | 6.94 | 58 | 5.01 | 25 (≈ 11.3 µg/mL) | 7.72 | –
20 | Clc1cc(NCc2cnc(-c3ccc(Oc4ccccc4)cc3)s2)ccn1 | 6.14 | 55 | 4.16 | 2 (≈ 0.788 µg/mL) | 8.05 | –
21 | CC(C)Nc1ccc(-c2ncc(CNc3ccnc(C(F)(F)F)c3)s2)cc1 | 6.30 | 7 | – | 39 (≈ 15.3 µg/mL) | 6.37 | –
22 | CC(C)Oc1ccc(-c2ncc(CNc3cc(Cl)nc(C(F)(F)F)c3)s2)cc1 | 7.06 | 15 | 5.4 | 35 (≈ 15 µg/mL) | 8.10 | –
23 | CC(C)Oc1ccc(-c2ncc(CNc3cc(Cl)nc(C(F)(F)F)c3)s2)cc1Cl | 6.96 | 28 | 5.21 | 7 (≈ 3.24 µg/mL) | 8.00 | –
24 | FC(F)(F)c1cc(NCc2cc(-c3ccc(Oc4ccccc4)cc3)no2)ccn1 | 6.47 | 36 | 5.04 | 8 (≈ 3.29 µg/mL) | 7.52 | –
25 | COc1c(C)cc(-c2ncc(CNc3ccnc(C(F)(F)F)c3)s2)cc1C | < 8.30 | – | – | – | < 8.30 | –
26 | COc1ccc(-c2ncc(CNc3ccnc(C(F)(F)F)c3)s2)cc1Cl | 6.67 | 1 | 4.84 | 25 (≈ 10 µg/mL) | 7.40 | –
27 | FC(F)(F)c1cc(NCc2nnc(-c3ccc(Oc4ccccc4)cc3)o2)ccn1 | 6.39 | 23 | 4.12 | 46 (≈ 19 µg/mL) | 7.64 | –
28 | FC(F)(F)c1cc(NCc2ncc(-c3ccc(Oc4ccccc4)cc3)s2)ccn1 | 6.29 | 10 | 5.54 | 26 (≈ 11.1 µg/mL) | 7.29 | –
29 | N#Cc1cc(NCc2cnc(-c3ccc(Oc4ccccc4)cc3)s2)ccn1 | 6.54 | 39 | 3.15 | 7 (≈ 2.69 µg/mL) | 7.52 | –
30 | CC(C)Oc1ccc(-c2ncc(CNc3cc(Cl)nc(Cl)c3)s2)cc1 | 7.06 | 37 | 5.62 | 8 (≈ 3.15 µg/mL) | 7.54 | –
31 | FC(F)(F)c1ccc(NCc2cnc(-c3ccc(Oc4ccccc4)cc3)s2)cn1 | 6.37 | 10 | 3.42 | 8 (≈ 3.42 µg/mL) | 7.42 | –
32 | N#Cc1ccc(NCc2cnc(-c3ccc(Oc4ccccc4)cc3)s2)cn1 | 6.12 | 38 | 3.52 | 6 (≈ 2.31 µg/mL) | 8.30 | –
33 | N#Cc1ccc(NCc2cnc(-c3ccc(Oc4ccccc4)cc3)s2)nc1 | < 5.30 | 20 | – | 5 (≈ 1.92 µg/mL) | 6.10 | –
34 | COc1ccc(-c2ncc(CNc3ccnc(C(F)(F)F)c3)s2)cc1 | 6.35 | – | – | – | 7.08 | –
35 | FC(F)(F)c1cc(SCc2cnc(-c3ccc(Oc4ccccc4)cc3)s2)ccn1 | 5.63 | 11 | 4.03 | 7 (≈ 3.11 µg/mL) | 6.95 | –
